This is an account of results in US4225619A, “Substituted fluoracylresorcinols” (Boehringer Ingelheim GmBH, priority 1976, dated 1980).

Experiment [1] concerns the target glucose-6-phosphate-dehydrogenase. In words: Inhibition of glucose-6-phosphate-dehydrogenase (G6PDH). The format is biochemical. Conditions: for G6PDH-inhibition Ed50, Immediate Inhibition: 25° C. for 5 minutes preincubation; for G6PDH-inhibition Ed50, Inhibition of Incubation: 37° C. for 60 minutes preincubation. Here is the method:
Measurement of the inhibition of the glucose-6-phosphatedehydrogenase
The equilibrium was observed:
Glucose-6-phosphate+NADP^+ G6-DH gluconic
acid-6-phosphate+NADPH+H^+
(NADP=nicotinamide-adenine-dinycleotide-phosphate, G6P-DH=gluconic acid-6-phosphate-dehydrogenase)
The formation velocity of NADPH is a measure for the enzyme activity; it may be observed by means of the extinction increase at 340, 334 or 366 nm per unit of time.
0.025 ml of glucose-6-phosphate-dehydrogenase (Boehringer Mannheim) were filled up to 10 ml of distilled water (solution I). 100 mgm of nicotinamide-adenine-dinucleotide-phosphate were dissolved in 13 ml of distilled water (solution II). 47.2 mgm of glucose-6-phosphate were dissolved in further 10 ml of distilled water (solution 3). Simultaneously a buffer solution (solution IV) was prepared as follows: 0.28 gm of triethanolamine-hydrochloride and 1.461 gm of ethylene diaminotetraacetic acid-disodium salt were dissolved in 1 liter of distilled water and adjusted to a pH of 7.6 with sodium hydroxide solution. The substance under test was dissolved in dimethyl formamide or ethanol (solution V). Tested concentrations: 50; 25; 12.5; 6.25; 3.125; 1.56 and 0.78 μg/ml.
0.1 ml of solution I, 0.1 ml of solution II, 2.67 ml of solution IV and 0.03 ml of solution V were mixed and kept at 25° C. for 5 minutes. Then 0.1 ml of solution III was added, mixed and the alteration of extinction was determined spectrophotometrically at 366 nm for 3 minutes.
0.1 ml of solution I, 0.1 ml of solution II, 2.67 ml of solution IV and 0.03 ml of solution V were mixed and kept at 37° C. for 60 minutes. Then 0.1 ml of solution III was added, mixed and the alteration of extinction was measured spectrophotometrically at 366 nm for 3 minutes.
The inhibitory values were calculated from the average values of three measurements (alteration of extinction per minute) compared with controls, which received the pure solvent as the inhibitory solution. Then the ED50 was calculated according to Reed and Muench from the inhibitory values for the various concentrations.

The test system of experiment [2] is Staphylococcus aureus SG 511. In words: Serial dilution test. The format is cell-based. Conditions: Staphylococcus aureus, SG511, 18-20 hours at 37° C., read-out: MIC, S.D.T., Staphylococcus aureus SG 511.
The next experiment concerns HeLa-cell culture. In words: Inhibition of HeLa cell cultures. The conditions noted are these: Homo sapiens, 72 h, 37° C. for 3 days, 5% carbon dioxide; for IC50: read-out: ED50, HeLa cell culture; for minimal effective concentration: read-out: Minimal inhibitory concentration, HeLa cell culture. The format is cell-based.
Experiment [3] concerns Streptococcus pyogenes At CC 86 68. In words: Agar diffusion test (hole-test). The format is cell-based. The conditions noted are these: ATCC8668, 18-20 hours at 37° C., read-out: MIC, A.D.T., Streptococcus pyogenes. (In general: Agar diffusion results depend on both activity and mobility in agar.)
The next experiment relates to Streptococcus Aronson. In words: Agar diffusion test (hole-test). The conditions noted are these: 18-20 hours at 37° C., read-out: MIC, A.D.T., Streptococcus Aronson. The format is cell-based.

By MIC is commonly meant the least concentration at which growth counts as inhibited.

Structures are written as SMILES. In brackets after ≈: the same amount, converted by molar mass. Where only a bound is given, the exact number is not on record here.

For `CCc1cc(C(=O)C(F)(F)F)c(O)cc1O` [B, 5-Ethyl-2,4-dihydroxy-trifluoroacetophenone, reference compound], the “G6PDH-inhibition Ed50, Immediate Inhibition” value in experiment [1] was found to be 34.5 µg/mL. Moreover, the “G6PDH-inhibition Ed50, Inhibition of Incubation” value in experiment [1] was 30 µg/mL. Moreover, the figures for the MIC (in experiment [2]; in experiment [3]; in the experiment with Streptococcus Aronson) were 20 µg/mL (≈ 85.4 µM), 250 µg/mL (≈ 1070 µM) and 250 µg/mL (≈ 1070 µM), respectively. The IC50 with HeLa-cell culture stood at 9.75 µg/mL (≈ 41.6 µM). For the same compound, the minimal effective concentration with HeLa-cell culture turned out to be 6.25 µg/mL.
As to `CCc1c(O)ccc(C(=O)C(F)(F)F)c1O` [C, 3-Ethyl-2,4-dihydroxy-trifluoroacetophenone, reference compound], the “G6PDH-inhibition Ed50, Immediate Inhibition” value in experiment [1] amounted to 37.5 µg/mL. Further, in experiment [1], the “G6PDH-inhibition Ed50, Inhibition of Incubation” value worked out at 20 µg/mL. Besides, the MIC in experiment [2] came to 5 µg/mL (≈ 21.4 µM); in experiment [3], 62.5 µg/mL (≈ 267 µM); in the experiment on Streptococcus Aronson, 62.5 µg/mL (≈ 267 µM).
As to `CC(C)Cc1c(O)ccc(C(=O)C(F)(F)F)c1O` [F, 2,4-Dihydroxy-3-iso-butyl-trifluoroacetophenone], in experiment [1], the “G6PDH-inhibition Ed50, Immediate Inhibition” value came to 37.7 µg/mL and the “G6PDH-inhibition Ed50, Inhibition of Incubation” value turned out to be 27.7 µg/mL. The MIC in experiment [2] came to 0.08 µg/mL (≈ 0.305 µM). For the same compound, in the experiment with HeLa-cell culture, the IC50 stood at 7.7 µg/mL (≈ 29.4 µM) and the minimal effective concentration amounted to 0.78 µg/mL. Moreover, the MIC in experiment [3] was not above 15.6 µg/mL. The MIC in the experiment on Streptococcus Aronson was not above 15.6 µg/mL.
Turning to `CC1CCC(c2c(O)ccc(C(=O)C(F)(F)F)c2O)CC1` (centres unmarked) [H, 2,4-Dihydroxy-3-(4'-methyl)-cyclohexyl-trifluoro-acetophenone], the MIC is 0.31 µg/mL (≈ 1.03 µM) in experiment [2], not above 15.6 µg/mL in experiment [3] and not above 15.6 µg/mL in the experiment on Streptococcus Aronson. Besides, the IC50 in the experiment with HeLa-cell culture was 4.2 µg/mL (≈ 13.9 µM). The minimal effective concentration with HeLa-cell culture was not above 0.78 µg/mL.
For the compound `CC(C)c1c(O)ccc(C(=O)C(F)(F)F)c1O` [P, 2,4-Dihydroxy-3-isopropyl-trifluoroacetophenone], in experiment [1], the “G6PDH-inhibition Ed50, Immediate Inhibition” value was 14.8 µg/mL and the “G6PDH-inhibition Ed50, Inhibition of Incubation” value came to 9.9 µg/mL. Also, in experiment [2], the MIC is 1.25 µg/mL (≈ 5.04 µM). Also, in the experiment on HeLa-cell culture, the IC50 came to 3.52 µg/mL (≈ 14.2 µM) and the minimal effective concentration was 1.56 µg/mL. Besides, the MIC in experiment [3] was 62.5 µg/mL (≈ 252 µM). In the experiment on Streptococcus Aronson, the MIC is not above 15.6 µg/mL.
For the compound `O=C(c1ccc(O)cc1O)C(F)(F)F` [A, 2,4-Dihydroxy-trifluoroacetophenone, reference compound], in experiment [1], the “G6PDH-inhibition Ed50, Immediate Inhibition” value was more than 50 µg/mL and the “G6PDH-inhibition Ed50, Inhibition of Incubation” value is 33 µg/mL. Besides, the MIC in experiment [2] was 80 µg/mL (≈ 388 µM). In the experiment on HeLa-cell culture, the IC50 stood at 12.5 µg/mL (≈ 60.6 µM) and the minimal effective concentration turned out to be 3.13 µg/mL. Also, the MIC in the experiment with Streptococcus Aronson stood at 1000 µg/mL (≈ 4850 µM).
Turning to `COc1ccc(C(=O)C(F)(F)F)c(OC)c1` [D, 2,4-Dimethoxy-trifluoroacetophenone, reference compound], the “G6PDH-inhibition Ed50, Immediate Inhibition” value in experiment [1] was more than 50 µg/mL. Besides, the “G6PDH-inhibition Ed50, Inhibition of Incubation” value in experiment [1] is more than 50 µg/mL. Moreover, the MIC in experiment [2] was more than 80 µg/mL; in experiment [3], more than 4000 µg/mL; in the experiment on Streptococcus Aronson it was more than 4000 µg/mL. The IC50 with HeLa-cell culture came out at 90.1 µg/mL (≈ 385 µM). Further, the minimal effective concentration with HeLa-cell culture was 25 µg/mL.
